Some test systems named below: MDA-N; T-47D breast; KM20L2 colon; LXFL 529 NSCLC; M19-MEL melanoma; XF 498 CNS; DMS 273 small cell lung; HOP-18 NSCLC.
What all share (assay): NCI tumour cell line growth inhibition, 48 h

These results are taken from PubChem BioAssay (NCI).

Values joined by “and” are separate entries in the source; they are usually repeats but may differ in a detail not shown here. Equal values may be shown once.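 96-well plates; 48 h exposure; 5 concentrations. Endpoints by linear interpolation between flanking doses. Not reached: highest tested concentration assigned. The concentration for 50% growth inhibition is given as GI50. Definition used: TGI = concentration required for complete inhibition of growth.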

`Nc1n[n+]([O-])c2cc([N+](=O)[O-])ccc2[n+]1[O-]`: the values for the TGI with MDA-N and in the test with T-47D breast were 4.93 µM and 18.6 µM, respectively.
For `N#CCc1c(F)c(F)c(F)c(F)c1F`, in that order: over 100 µM and over 100 µM.
Take `Nc1nc(=O)n(C2CC(O)C(CO)O2)cc1F` (stereo unspecified): in the test on T-47D breast, the GI50 is over 100000 nM and the TGI was over 100 µM.
In the same order, the values of `CC1(C)OB(c2ccc(N(CCOS(C)(=O)=O)CCOS(C)(=O)=O)cc2)OC1(C)C` are 18100 nM and over 100 µM.
In the case of `CC(=O)NNc1nc(C)c(C(=O)NNC(=O)C(=O)Nc2ccc(Cl)c([N+](=O)[O-])c2)s1`, the TGI in the test with KM20L2 colon, in the test on LXFL 529 NSCLC, in the test on M19-MEL melanoma and with XF 498 CNS was over 100 µM in each case.
In the case of `O=C1C=CC2(CCCCCCC2=O)CC1` (stereo unspecified), the TGI in the test on DMS 273 small cell lung, in the test with HOP-18 NSCLC, with KM20L2 colon, in the test on LXFL 529 NSCLC and in the test on M19-MEL melanoma was over 100 µM in each case.
On to `N#Cc1ncc(C(Cl)Cl)nc1Cl`, for which the results for the TGI in the test on MDA-N and in the test on T-47D breast were 3.07 µM and 3.78 µM, respectively.
`C[C@H]1CCC/C=C/C2CC(OC(=O)CN(C)C)CC2C(OC(=O)CN(C)C)/C=C/C(=O)O1` (stereo partly specified): the GI50 in the test with DMS 273 small cell lung is 3.77 µM; with KM20L2 colon it was 266 nM; in the test with LXFL 529 NSCLC it was 417 nM; in the test with M19-MEL melanoma, 0.0406 µM; with MDA-N it was 427 nM; with XF 498 CNS it was 179 nM. Further, the TGI with DMS 273 small cell lung is 27.7 µM; in the test on KM20L2 colon, 0.979 µM; in the test with LXFL 529 NSCLC it was 8.4 µM; in the test with M19-MEL melanoma, 0.211 µM; with MDA-N it was over 100 µM; in the test with XF 498 CNS, 1.42 µM.
In the case of `Cc1nnc(C[C@@H]2C=C(c3ccc(Cl)cc3)c3ccccc3-n3c(C)nnc32)o1`, in the test with T-47D breast, the GI50 was 719 nM and the TGI is over 92.7 µM.
`COC(=O)c1cc(-c2ccc3ccccc3c2)[nH]c(=O)c1C#N`: the TGI with MDA-N and in the test with T-47D breast was over 100 µM throughout.
With `Cc1cc(S(=O)(=O)/N=C(\N)Nc2cccc(O)c2)c(SCc2ccccc2)cc1Cl`, in the test with T-47D breast, the GI50 was 19400 nM and the TGI was 75.7 µM.
Regarding `O=S(=O)(C1=CC(S(=O)(=O)c2ccccc2)COC1)c1ccccc1` (stereo unspecified), the TGI in the test with DMS 273 small cell lung, in the test with LXFL 529 NSCLC, in the test with M19-MEL melanoma and in the test with XF 498 CNS was over 100 µM in each case.
Turning to `Cc1cc(F)c(C(=O)Nc2cccc(-c3nncn3C(C)C)n2)cc1-n1cnc(C2CC2)c1`, in the test with T-47D breast, the GI50 is 2010 nM and the TGI was found to be 9.95 µM.
Take `C#CCN(N=O)C(=O)NC(CCCCNC(=O)OCc1ccccc1)C(=O)OCc1ccccc1` (stereo unspecified): the TGI was over 100 µM with DMS 273 small cell lung; 44.9 µM in the test on HOP-18 NSCLC; over 100 µM with KM20L2 colon; 31.7 µM in the test on LXFL 529 NSCLC; over 100 µM in the test with M19-MEL melanoma.
In the case of `COc1ccc(-c2nn(-c3cccc(Cl)c3)cc2/C=C2\NC(=S)N(c3ccc(Cl)cc3)C2=O)cc1`, in the test with T-47D breast, the GI50 was 3610 nM and the TGI amounted to 9.7 µM.
Take `Cc1ccc2nc(NC(=O)C(=O)C(C(=O)c3ccc4ccccc4c3)C3OC(=O)c4ccccc43)sc2c1` (stereo unspecified): the TGI in the test on LXFL 529 NSCLC was 19.2 µM; in the test on M19-MEL melanoma, 32.6 µM.
As to `CCN(C(=O)N1CCN(c2cc3c(cc2F)c(=O)c(C(=O)O)cn3C2CC2)CC1)c1nc(-c2ccccc2)cs1`, in the test on T-47D breast, the GI50 was 2570 nM and the TGI was over 100 µM.
As for `COc1ccc(-n2cc(-c3cc(OC)c(OC)c(OC)c3)nc2SCc2ccc(Cl)cc2)cc1OC`, in the test with T-47D breast, the GI50 is 15100 nM and the TGI is over 100 µM.
As to `c1ccc2c(c1)[nH]c1cnc3c4ncccc4[nH]c3c12`, the TGI in the test on DMS 273 small cell lung, in the test on KM20L2 colon, with LXFL 529 NSCLC, in the test with M19-MEL melanoma and in the test on XF 498 CNS was over 100 µM in each case.
With `COc1ccc2[nH]c(Cl)c(/C=C3/C(=O)Nc4ccccc43)c2c1`, in the test on T-47D breast, the GI50 was 5400 nM and the TGI is 84.5 µM.
For `CN(C)c1ccc(C(=S)c2ccc(N(C)C)cc2)cc1`, in that order: 6340 nM and over 100 µM.
For `Cc1cccc2c(C3=C(c4cn(C)c5ccccc45)C(=O)NC3=O)cn(C)c12`, in that order: over 20000 nM and over 25 µM.
Regarding `C[C@@H](C1CC[C@H]2[C@@H]3[C@@H]4O[C@@H]4[C@@]4(O)CC=CC(=O)[C@]4(C)[C@H]3C[C@H](O)[C@]12C)[C@H]1C[C@]2(C)O[C@]2(C)C(=O)O1` (stereo partly specified), the TGI in the test with MDA-N and in the test with T-47D breast was over 100 µM throughout.
On to `Clc1ccc(-c2cc(-c3ccccc3)nc(N3CCN(CCCNc4ccnc5cc(Cl)ccc45)CC3)n2)cc1`, for which, in the test on T-47D breast, the GI50 was 1140 nM and the TGI was 3.38 µM.
As for `NC(Cc1ccccc1)C(=O)OCN1C(=O)C2C3C=CC(C2C1=O)C1C2C(=O)N(COC(=O)C(N)Cc4ccccc4)C(=O)C2C31` (stereo unspecified), the GI50 with HOP-18 NSCLC was 45.3 µM and 20 µM; in the test with M19-MEL melanoma it was 21.6 µM. In addition, the TGI in the test on HOP-18 NSCLC is > 100 µM and 52.1 µM; with KM20L2 colon, 67.2 µM and 51.5 µM; in the test on LXFL 529 NSCLC it was 39.7 µM and 37.9 µM; with M19-MEL melanoma it was 38.4 µM; in the test with XF 498 CNS it was 71.7 µM.
On to `O=C(Nc1ccc(OS(=O)(=O)c2ccc(F)cc2)cc1)C12CC3CC(CC(C3)C1)C2`, for which, in the test on T-47D breast, the GI50 was 831 nM and the TGI was over 100 µM.
For `C=CC(=O)N[C@@H]1CN(c2nc(Nc3cn(C)nc3OC)c3ncn(C)c3n2)C[C@H]1F`, in that order: 1740 nM and over 100 µM.
`COc1ccc(C(=O)/C=C/c2sc(Cl)nc2Cl)cc1`: in the test with T-47D breast, the GI50 is 2930 nM and the TGI was 9.23 µM.
Turning to `CNC(=O)c1cc(Oc2ccc3nc(NC(=O)Nc4ccc(CN5CCOCC5)c(C(F)(F)F)c4)sc3c2)ccn1`, in the test on T-47D breast, the GI50 is 1530 nM and the TGI came out at 6.82 µM.
